Measurements reported in patent publication US10385022B2, “3-amino-pyridines as GPBAR1 agonists” (HOFFMANN-LA ROCHE INC., priority 2011, dated 2019).

Target: human GPBAR1 receptor (Homo sapiens (Human), UniProt Q8TDU6)
Experiment: functional cAMP assay in CHO-dhfr(minus) cells expressing human GPBAR1 receptors
Type: cell-based
Settings: CHO-dhfr(minus) cells expressing human GPBAR1, 30 min at 30° C.
In short: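 Functional cAMP responses in a human GPBAR1-transfected CHO-dhfr- clone, picked using lithocholic acid as agonist, gave the EC50 values. Parallel testing in untransfected CHO cells served as a specificity control.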

human GPBAR1 receptor, sequence (Q8TDU6 whole entry): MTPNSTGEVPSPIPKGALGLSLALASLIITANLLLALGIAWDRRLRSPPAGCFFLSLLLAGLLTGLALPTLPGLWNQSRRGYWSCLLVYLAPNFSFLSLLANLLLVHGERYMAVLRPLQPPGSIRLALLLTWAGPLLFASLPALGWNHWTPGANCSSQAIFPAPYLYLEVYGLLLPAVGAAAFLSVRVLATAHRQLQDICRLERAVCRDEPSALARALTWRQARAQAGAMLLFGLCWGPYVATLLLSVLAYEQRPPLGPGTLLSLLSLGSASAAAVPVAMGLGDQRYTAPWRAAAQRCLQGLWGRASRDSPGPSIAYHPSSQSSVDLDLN

| Compound | EC50 |
| --- | --- |
| COc1ncc(Cl)cc1-c1ccncc1N(C)C(=O)c1cc(C(F)(F)F)cc(C(F)(F)F)c1 [Example 45, N-(5-Chloro-2-methoxy-[3,4′]bipyridinyl-3′-yl)-N-methyl-3,5-bis-trifluoromethyl-benzamide] | 302 nM |
| COc1nccc(-c2ccncc2N(C)C(=O)c2cc(C(F)(F)F)cc(C(F)(F)F)c2)c1Cl [Example 50, N-(3′-Chloro-2′-methoxy-[4,4′]bipyridinyl-3-yl)-N-methyl-3,5-bis-trifluoromethyl-benzamide] | 678 nM |
| CC(C#N)Oc1cc(F)ccc1-c1ccncc1N(C)C(=O)c1cc(C(F)(F)F)cc(C(F)(F)F)c1 (centres unmarked) [Example 53, N-{4-[2-(Cyano-methyl-methoxy)-4-fluoro-phenyl]-pyridin-3-yl}-N-methyl-3,5-bis-trifluoromethyl-benzamide] | 1100 nM |
| COc1cc(F)ccc1-c1cc(C)ncc1N(C)C(=O)c1cc(SCCCCC(=O)O)cc(C(F)(F)F)c1 [Example 312, 5-(3-{[4-(4-Fluoro-2-methoxy-phenyl)-6-methyl-pyridin-3-yl]-methyl-carbamoyl}-5-trifluoromethyl-phenylsulfanyl)-pentanoic acid] | 2420 nM |
| Cc1nc(C)c(-c2ccncc2N(C)C(=O)c2cc(C(F)(F)F)cc(C(F)(F)F)c2)s1 [Example 209, N-[4-(2,4-Dimethyl-thiazol-5-yl)-pyridin-3-yl]-N-methyl-3,5-bis-trifluoromethyl-benzamide] | 1470 nM |
| COc1cc(F)ccc1-c1cc(C)ncc1N(C)C(=O)c1cc(C(F)(F)F)cc(S(=O)(=O)CCCCC(=O)NCC(=O)O)c1 [Example 317, [5-(3-{[4-(4-Fluoro-2-methoxy-phenyl)-6-methyl-pyridin-3-yl]-methyl-carbamoyl}-5-trifluoromethyl-benzenesulfonyl)-pentanoylamino]-acetic acid] | 418 nM |
| COc1ncccc1-c1ccncc1N(C)C(=O)c1cc(C(F)(F)F)cc(C(F)(F)F)c1 [Example 32, N-(2-Methoxy-[3,4′]bipyridinyl-3′-yl)-N-methyl-3,5-bis-trifluoromethyl-benzamide] | 9 nM |
| COc1cc(F)ccc1-c1ccncc1N(C)C(=O)c1cc(Br)cc(OC(F)(F)F)c1 [Example 246, 3-Bromo-N-[4-(4-fluoro-2-methoxy-phenyl)-pyridin-3-yl]-N-methyl-5-trifluoromethoxy-benzamide] | 168 nM |
| Cc1ccccc1-c1ccncc1N(CCS(C)(=O)=O)C(=O)c1cc(C(F)(F)F)nc(C(F)(F)F)c1 [Example 163, N-(2-Methanesulfonyl-ethyl)-N-(4-o-tolyl-pyridin-3-yl)-2,6-bis-trifluoromethyl-isonicotinamide] | 99 nM |
| COc1cc(F)c(F)cc1-c1ccncc1N(C)C(=O)c1cc(C(F)(F)F)cc(C(F)(F)F)c1 [Example 39, N-[4-(4,5-Difluoro-2-methoxy-phenyl)-pyridin-3-yl]-N-methyl-3,5-bis-trifluoromethyl-benzamide] | 38 nM |
| Cc1ccccc1-c1ccncc1N(C)C(=O)c1cc(C(F)(F)F)cc(S(C)(=O)=O)c1 [Example 114, 3-Methanesulfonyl-N-methyl-N-(4-o-tolyl-pyridin-3-yl)-5-trifluoromethyl-benzamide] | 30 nM |
| Cc1ncccc1-c1ccncc1N(C)C(=O)c1cc(C(F)(F)F)cc(C(F)(F)F)c1 [Example 33, N-Methyl-N-(2-methyl-[3,4′]bipyridinyl-3′-yl)-3,5-bis-trifluoromethyl-benzamide] | 349 nM |
| CC1CCCCN1c1ccncc1N(C)C(=O)c1cc(C(F)(F)F)cc(C(F)(F)F)c1 (centres unmarked) [Example 20, N-Methyl-N-(2-methyl-3,4,5,6-tetrahydro-2H-[1,4′]bipyridinyl-3′-yl)-3,5-bis-trifluoromethyl-benzamide] | 143 nM |
| Cc1ccccc1-c1ccncc1N(CC(F)(F)F)C(=O)c1cc(C(F)(F)F)nc(C(F)(F)F)c1 [Example 150, N-(4-o-Tolyl-pyridin-3-yl)-N-(2,2,2-trifluoro-ethyl)-2,6-bis-trifluoromethyl-isonicotinamide] | 90 nM |
| COc1cc(F)ccc1-c1ccncc1N(CCS(C)(=O)=O)C(=O)c1cc(C(F)(F)F)nc(C(F)(F)F)c1 [Example 162, N-[4-(4-Fluoro-2-methoxy-phenyl)-pyridin-3-yl]-N-(2-methanesulfonyl-ethyl)-2,6-bis-trifluoromethyl-isonicotinamide] | 101 nM |
| Cc1ccccc1-c1ccncc1N(C)C(=O)c1cccc(C(F)(F)F)c1 [Example 2, N-Methyl-N-(4-o-tolyl-pyridin-3-yl)-3-trifluoromethyl-benzamide] | 727 nM |
| O=C(c1cc(C(F)(F)F)nc(C(F)(F)F)c1)N(CC(F)F)c1cnccc1-c1ccccc1F [Example 155, N-(2,2-Difluoro-ethyl)-N-[4-(2-fluoro-phenyl)-pyridin-3-yl]-2,6-bis-trifluoromethyl-isonicotinamide] | 38 nM |
| CS(=O)(=O)c1cc(C(=O)N(CC(N)=O)c2cnccc2-c2ccccc2OC(F)(F)F)cc(C(F)(F)F)c1 [Example 319, N-Carbamoylmethyl-3-methanesulfonyl-N-[4-(2-trifluoromethoxy-phenyl)-pyridin-3-yl]-5-trifluoromethyl-benzamide] | 3340 nM |

| Compound | EC50 |
| --- | --- |
| COc1cc(-c2ccccc2C)c(N(C)C(=O)c2cc(C(F)(F)F)cc(C(F)(F)F)c2)cn1 [Example 14, N-(6-Methoxy-4-o-tolyl-pyridin-3-yl)-N-methyl-3,5-bis-trifluoromethyl-benzamide] | 395 nM |
| COc1cc(F)ccc1-c1cc(C)ncc1N(C)C(=O)c1cc(C(F)(F)F)cc(S(=O)(=O)N2CCOCC2)c1 [Example 302, N-[4-(4-Fluoro-2-methoxy-phenyl)-6-methyl-pyridin-3-yl]-N-methyl-3-(morpholine-4-sulfonyl)-5-trifluoromethyl-benzamide] | > 10000 nM |
| Cc1cc(C(=O)N(C)c2cnccc2-c2ccccc2C)cc(Cl)n1 [Example 119, 2-Chloro-6,N-dimethyl-N-(4-o-tolyl-pyridin-3-yl)-isonicotinamide] | 610 nM |
| Cc1ccccc1-c1ccncc1N(C)C(=O)c1cc(N2CCCC2=O)cc(C(F)(F)F)c1 [Example 185, N-Methyl-3-(2-oxo-pyrrolidin-1-yl)-N-(4-o-tolyl-pyridin-3-yl)-5-trifluoromethyl-benzamide] | 2400 nM |
| COc1cc(F)ccc1-c1ccncc1N(CC(F)(F)F)C(=O)c1cc(C(F)(F)F)cc(S(=O)(=O)N(C)C)c1 [Example 133, 3-Dimethylsulfamoyl-N-[4-(4-fluoro-2-methoxy-phenyl)-pyridin-3-yl]-N-(2,2,2-trifluoro-ethyl)-5-trifluoromethyl-benzamide] | 39 nM |
| Cc1ccccc1-c1cc(Cl)ncc1N(C)C(=O)c1cc(Cl)cc(Cl)c1 [Example 13, 3,5-Dichloro-N-(6-chloro-4-o-tolyl-pyridin-3-yl)-N-methyl-benzamide] | 580 nM |
| COc1cc(F)c(Cl)cc1-c1cc(C)ncc1N(C)C(=O)c1cc(C(F)(F)F)cc(S(=O)(=O)CCCCC(=O)O)c1 [Example 316, 5-(3-{[4-(5-Chloro-4-fluoro-2-methoxy-phenyl)-6-methyl-pyridin-3-yl]-methyl-carbamoyl}-5-trifluoromethyl-benzenesulfonyl)-pentanoic acid] | 926 nM |
| COc1cccc(F)c1-c1ccncc1N(C)C(=O)c1cc(C(F)(F)F)cc(C(F)(F)F)c1 [Example 66, N-[4-(2-Fluoro-6-methoxy-phenyl)-pyridin-3-yl]-N-methyl-3,5-bis-trifluoromethyl-benzamide] | 8 nM |
| COc1cc(F)ccc1-c1ccncc1N(C)C(=O)c1cc(SCCCCC(=O)O)cc(C(F)(F)F)c1 [Example 243, 5-(3-{[4-(4-Fluoro-2-methoxy-phenyl)-pyridin-3-yl]-methyl-carbamoyl}-5-trifluoromethyl-phenylsulfanyl)-pentanoic acid] | 610 nM |
| CN(C(=O)c1cc(C(F)(F)F)cc(S(C)(=O)=O)c1)c1cnccc1-c1cccnc1Cl [Example 313, N-(2-Chloro-[3,4′]bipyridinyl-3′-yl)-3-methanesulfonyl-N-methyl-5-trifluoromethyl-benzamide] | 1220 nM |
| CN(C(=O)c1cc(C(F)(F)F)cc(C(F)(F)F)c1)c1cnccc1-c1ccncc1F [Example 70, N-(3′-Fluoro-[4,4′]bipyridinyl-3-yl)-N-methyl-3,5-bis-trifluoromethyl-benzamide] | 485 nM |
| COc1nc(C)ccc1-c1ccncc1N(C)C(=O)c1cc(C(F)(F)F)cc(C(F)(F)F)c1 [Example 47, N-(2-Methoxy-6-methyl-[3,4′]bipyridinyl-3′-yl)-N-methyl-3,5-bis-trifluoromethyl-benzamide] | 68 nM |
| COc1cc(F)ccc1-c1ccnc(C)c1N(C)C(=O)c1cc(C(F)(F)F)cc(S(C)(=O)=O)c1 [Example 230, N-[4-(4-Fluoro-2-methoxy-phenyl)-2-methyl-pyridin-3-yl]-3-methanesulfonyl-N-methyl-5-trifluoromethyl-benzamide] | 73 nM |
| COc1cc(F)ccc1-c1ccncc1N(CC1CCCO1)C(=O)c1cc(C(F)(F)F)cc(S(C)(=O)=O)c1 (single isomer, unassigned; (+)) [Example 232, (+)-N-[4-(4-Fluoro-2-methoxy-phenyl)-pyridin-3-yl]-3-methanesulfonyl-N-[1-(tetrahydro-furan-2-yl)methyl]-5-trifluoromethyl-benzamide] | 335 nM |
| Cc1ccccc1-c1ccncc1N(C)C(=O)c1ccc(F)c(Cl)c1 [Example 11, 3-Chloro-4-fluoro-N-methyl-N-(4-o-tolyl-pyridin-3-yl)-benzamide] | 406 nM |
| COc1cc(F)c(F)cc1-c1ccncc1N(CC(F)(F)F)C(=O)c1cc(C(F)(F)F)cc(S(C)(=O)=O)c1 [Example 139, N-[4-(4,5-Difluoro-2-methoxy-phenyl)-pyridin-3-yl]-3-methanesulfonyl-N-(2,2,2-trifluoro-ethyl)-5-trifluoromethyl-benzamide] | 606 nM |
| COc1ccc(C(=O)N(C)c2cnccc2-c2ccccc2C)cc1C(F)(F)F [Example 92, 4-Methoxy-N-methyl-N-(4-o-tolyl-pyridin-3-yl)-3-trifluoromethyl-benzamide] | 236 nM |
